The experiment addresses T1, Glutaredoxin-1 (GRX-1) (Homo sapiens, UniProt P35754).
T1 sequence (P35754 2-106): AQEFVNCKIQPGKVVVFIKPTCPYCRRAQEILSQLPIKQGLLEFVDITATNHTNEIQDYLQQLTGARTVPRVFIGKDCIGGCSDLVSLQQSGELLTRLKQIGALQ
Kind of experiment: time-dependent inactivation kinetics. Format: biochemical. Conditions: read-out: Ki.

Consider `CC(=O)N[C@@H](CSC(=S)Nc1ccc(NC(=S)SC[C@H](NC(C)=O)C(=O)O)cc1)C(=O)O` [2-AAPA, 2-acetylamino-3-[4-(2-acetylamino-2-carboxyethyl-sulfanylthiocarbonylamino)phenylthiocarbamoylsulfanyl]propionic acid], for which the KI (inactivation) is 91.3 µM.
